In patent US20230330234A1, “HYPERBRANCHED POLYESTER POLYOL DERIVATIVE AS DRUG SOLUBILIZER” (FREIE UNIVERSITÄT BERLIN, priority 2020, published 2023):
Values after ≈ are worked out from the molar mass of the structure shown. Like-named read-outs stand apart in the source and are kept apart here.

Key:
physchem = conditions: aqueous with cosolvent or surfactant or cyclodextrin, thermodynamic from solid
[1] = Carrying potential of h(PG-co-PCL)60S0.95 by elemental analysis; format: physicochemical; conditions: calculated by elemental analysis
Excerpt: The carrying potential (CP) of the polymer (solubilizing agent) is obtained as the ratio of the loaded and solubilized drug to the amount of solubilizing agent (Eq. 1).
For drugs presenting an absorption band at wavelength lower than 400 nm, the UV-VIS approach is not suitable, due to drug signals overlapping with signals of the solubilizing agent. Therefore, elemental analysis is chosen as alternative approach. The drugs chosen for the solubilization and entrapment contain nitrogen atoms, which are not present in the polymer structure. Via the quantification of the nitrogen content in the sample, it is possible to determine the amount of drug in it. For the loading quantification, the same equation is used as in the previous case.
The following tables (Table 5, Table 6 and Table 7) show the results of the performed analyses. In this context, h(PG-co-PCL)60S0.95 was used as hyperbranched polyester polyol derivative. Its non-sulfated backbone has a molecular weight of 60 kDa. The polyester polyol derivative has a sulfation degree of 95%.

[2] = Size and Z-potential investigation by DLS in PB; format: physicochemical; conditions: h(PG-co-PCL)60S0.95 with solubilized drug
Excerpt: The following tables (Table 5, Table 6 and Table 7) show the results of the performed analyses. In this context, h(PG-co-PCL)60S0.95 was used as hyperbranched polyester polyol derivative. Its non-sulfated backbone has a molecular weight of 60 kDa.

solubility at 18 h (physchem) [mg/mL] | solubility (Solubility in water; Solubility in water) [mg/mL] | Compound | further results
> 0.3 | 0.002 (≈ 3.11 µM) | CCN1[C@@H](C(=O)NC23CCC(C(=O)O)(CC2)CC3)[C@H](c2cccc(Cl)c2F)[C@]2(C(=O)Nc3cc(Cl)ccc32)C12CCCCC2 [APG-115] | 
> 0.3 | 0.01 (≈ 20.6 µM) | CN(C)C/C=C/C(=O)Nc1cc2c(Nc3ccc(F)c(Cl)c3)ncnc2cc1O[C@H]1CCOC1 [Afatinib] | 
> 0.3 | 0.005 (≈ 11.3 µM) | Cc1nc(NC(=O)N2CCC[C@H]2C(N)=O)sc1-c1ccnc(C(C)(C)C(F)(F)F)c1 [Alpelisib] | 
> 0.3 |  | CNC(=O)c1ccccc1Sc1ccc2c(/C=C/c3ccccn3)n[nH]c2c1 [Axitinib] | Solubility in water (Solubility in water): 0.0005 mg/mL (≈ 1.29 µM)
> 0.3 | 0.05 (≈ 85.1 µM) | CCN(CCCOc1ccc2c(Nc3cc(CC(=O)Nc4cccc(F)c4)n[nH]3)ncnc2c1)CCOP(=O)(O)O [Barasertib] | 
> 0.3 | 0.03 (≈ 94.2 µM) | O=C(/C=C/c1cccc(S(=O)(=O)Nc2ccccc2)c1)NO [Belinostat] | 
> 0.3 | 0.05 (≈ 113 µM) | Cn1cnc2c(F)c(Nc3ccc(Br)cc3F)c(C(=O)NOCCO)cc21 [Binimetinib] | 
> 0.3 | 0.05 (≈ 130 µM) | CC(C)C[C@H](NC(=O)[C@H](Cc1ccccc1)NC(=O)c1cnccn1)B(O)O [Bortezomib] | 
 |  | C=CC(=O)Nc1ccc2[nH]c(=O)n(C3CCN(Cc4ccc(-c5nc6cc[nH]c(=O)c6cc5-c5ccccc5)cc4)CC3)c2c1 [Borussertib] | Carrying potential [1]: 12% wt %
> 0.3 | 0.01 (≈ 18.9 µM) | COc1cc(Nc2c(C#N)cnc3cc(OCCCN4CCN(C)CC4)c(OC)cc23)c(Cl)cc1Cl [Bosutinib] | 
> 0.3 | 0.002 (≈ 3.99 µM) | COc1cc2nccc(Oc3ccc(NC(=O)C4(C(=O)Nc5ccc(F)cc5)CC4)cc3)c2cc1OC [Cabozantinib] | 
> 0.3 | 0.04 (≈ 75.3 µM) | O=C(c1ccc(F)c(F)c1Nc1ccc(I)cc1F)N1CC(O)([C@@H]2CCCCN2)C1 [Cobimetinib] | 
< 0.1 |  | COc1cc(/C=C/C(=O)CC(=O)/C=C/c2ccc(O)c(OC)c2)ccc1O [Curcumin] | Solubility in water (Solubility in water): 0.006 mg/mL (≈ 16.3 µM)
> 0.3 | 0.03 (≈ 57.7 µM) | CC(C)(C)c1nc(-c2cccc(NS(=O)(=O)c3c(F)cccc3F)c2F)c(-c2ccnc(N)n2)s1 [Dabrafenib] | Size (volume) ([2]; DLS in PB, in nm (unit assumed)): 12 ± 1; Z-potential ([2]; in PB, in mV (unit assumed)): −29.6; Carrying potential [1]: 1% wt %
> 0.3 | 0.009 (≈ 19.2 µM) | COc1cc2ncnc(Nc3ccc(F)c(Cl)c3)c2cc1NC(=O)/C=C/CN1CCCCC1 [Dacomitinib] | 
> 0.3 |  | Cc1nc(Nc2ncc(C(=O)Nc3c(C)cccc3Cl)s2)cc(N2CCN(CCO)CC2)n1 [Dasatinib] | 
< 0.1 |  | C[C@@H]1C[C@H]2[C@@H]3CCC4=CC(=O)C=C[C@]4(C)[C@@]3(F)[C@@H](O)C[C@]2(C)[C@@]1(O)C(=O)CO [Dexamethasone] | 
> 0.3 | 0.01 (≈ 18.5 µM) | COC(=O)N[C@@H](C)CNc1nccc(-c2cn(C(C)C)nc2-c2cc(Cl)cc(NS(C)(=O)=O)c2F)n1 [Encorafenib] | 
> 0.3 | 0.005 (≈ 13.3 µM) | Nc1ccccc1NC(=O)c1ccc(CNC(=O)OCc2cccnc2)cc1 [Entinostat] | 
> 0.3 | 0.009 (≈ 16.1 µM) | CN1CCN(c2ccc(C(=O)Nc3n[nH]c4ccc(Cc5cc(F)cc(F)c5)cc34)c(NC3CCOCC3)c2)CC1 [Entrectinib] | 
> 0.3 | 0.01 (≈ 25.4 µM) | C#Cc1cccc(Nc2ncnc3cc(OCCOC)c(OCCOC)cc23)c1 [Erlotinib] | 
> 0.3 | 0.002 (≈ 3.93 µM) | COc1ccc(-c2nc(N3CCOCC3)c3sc(CN(C)c4ncc(C(=O)NO)cn4)cc3n2)cn1 [Fimepinostat] | 
> 0.3 | 0.001 (≈ 1.85 µM) | CCCc1cc(C)[nH]c(=O)c1CNC(=O)c1cc(-c2ccnc(N3CCN(C)CC3)c2)cc2c1cnn2C(C)C [GSK343] | 
> 0.3 | 0.007 (≈ 16.4 µM) | Cn1ncc(Cl)c1-c1cc(C(=O)N[C@H](CN)Cc2cccc(F)c2)sc1Cl [GSK2110183] | 
> 0.3 | 0.04 (≈ 65 µM) | CN(C)C1CCN(C(=O)c2ccc(NC(=O)Nc3ccc(-c4nc(N5CCOCC5)nc(N5CCOCC5)n4)cc3)cc2)CC1 [Gedatolisib] | 
> 0.3 | 0.05 (≈ 134 µM) | CN1CC[C@@H](NC(=O)Nc2ccc(C#N)cc2)C[C@@H]1c1nc2ccccc2[nH]1 [Glasdegib] | 

solubility at 18 h (physchem) [mg/mL] | solubility (Solubility in water; Solubility in water) [mg/mL] | Compound | further results
> 0.3 | 0.02 (≈ 45.4 µM) | C=CC(=O)N1CCC[C@@H](n2nc(-c3ccc(Oc4ccccc4)cc3)c3c(N)ncnc32)C1 [Ibrutinib] | 
< 0.1 |  | CC(C)Cc1ccc(C(C)C(=O)O)cc1 (centres unmarked) [Ibuprofen] | 
> 0.3 | 0.001 (≈ 1.62 µM) | COc1cc(C(=O)O)ccc1NC(=O)[C@@H]1N[C@@H](CC(C)(C)C)[C@](C#N)(c2ccc(Cl)cc2F)[C@H]1c1cccc(Cl)c1F [Idasanutlin] | 
> 0.3 | 0.05 (≈ 109 µM) | CC(C)NC[C@@H](C(=O)N1CCN(c2ncnc3c2[C@H](C)C[C@H]3O)CC1)c1ccc(Cl)cc1 [Ipatasertib] | 
> 0.3 | 0.08 (≈ 197 µM) | CO[C@@H](C)Cn1c(=O)n(C)c2cnc3ccc(-c4cncc(C(C)(C)O)c4)cc3c21 [LY3023414] | 
> 0.3 | 0.1 (≈ 246 µM) | C[C@H]1Oc2cc(cnc2N)-c2c(nn(C)c2C#N)CN(C)C(=O)c2ccc(F)cc21 [Lorlatinib] | 
> 0.3 | 0.008 (≈ 20.2 µM) | Nc1ccccc1NC(=O)c1ccc(CNc2nccc(-c3cccnc3)n2)cc1 [Mocetinostat] | 
> 0.3 | 0.08 (≈ 166 µM) | COc1ccc([C@@H](O)c2cc(-c3ncnc4cc(N5CCOCC5)ccc34)c(F)cc2Cl)nn1 [Nedisertib] | 
> 0.3 | 0.006 (≈ 10.8 µM) | CCOc1cc2ncc(C#N)c(Nc3ccc(OCc4ccccn4)c(Cl)c3)c2cc1NC(=O)/C=C/CN(C)C [Neratinib] | 
> 0.3 | 0.002 (≈ 3.78 µM) | Cc1cn(-c2cc(NC(=O)c3ccc(C)c(Nc4nccc(-c5cccnc5)n4)c3)cc(C(F)(F)F)c2)cn1 [Nilotinib] | 
> 0.3 | 0.01 (≈ 31.2 µM) | NC(=O)c1cccc2cn(-c3ccc([C@@H]4CCCNC4)cc3)nc12 [Niraparib] | 
> 0.3 | 0.12 (≈ 276 µM) | O=C(c1cc(Cc2n[nH]c(=O)c3ccccc23)ccc1F)N1CCN(C(=O)C2CC2)CC1 [Olaparib] | 
> 0.3 |  | Cc1ccc(Nc2nccc(N(C)c3ccc4c(C)n(C)nc4c3)n2)cc1S(N)(=O)=O [Pazopanib] | Solubility in water (Solubility in water): 0.04 mg/mL (≈ 91.4 µM)
> 0.3 | 0.002 (≈ 3.76 µM) | Cc1ccc(C(=O)Nc2ccc(CN3CCN(C)CC3)c(C(F)(F)F)c2)cc1C#Cc1cnc2cccnn12 [Ponatinib] | 
> 0.3 | 0.004 (≈ 9.07 µM) | Cn1nccc1Nc1nccc(-c2ccn([C@H](CO)c3ccc(Cl)c(F)c3)c(=O)c2)n1 [Ravoxertinib] | 
> 0.3 |  | CNC(=O)c1cc(Oc2ccc(NC(=O)Nc3ccc(Cl)c(C(F)(F)F)c3)c(F)c2)ccn1 [Regorafenib] | Solubility in water (Solubility in water): 0.001 mg/mL (≈ 2.07 µM)
> 0.3 | 0.01 (≈ 30.9 µM) | CNCc1ccc(-c2[nH]c3cc(F)cc4c3c2CCNC4=O)cc1 [Rucaparib] | 
> 0.3 |  | N#CC[C@H](C1CCCC1)n1cc(-c2ncnc3[nH]ccc23)cn1 [Ruxolitinib] | 
> 0.3 | 0.002 (≈ 3.56 µM) | CC(C)(C)C[C@@H]1N[C@@H](C(=O)N[C@H]2CC[C@H](O)CC2)[C@H](c2cccc(Cl)c2F)[C@]12C(=O)Nc1cc(Cl)ccc12 [SAR405838] | 
> 0.3 | 0.04 (≈ 87.4 µM) | Cn1cnc2c(F)c(Nc3ccc(Br)cc3Cl)c(C(=O)NOCCO)cc21 [Selumetinib] | 
> 0.3 | 0.001 (≈ 1.8 µM) | COc1ncc(-c2nc3c(n2C(C)C)[C@H](c2ccc(Cl)cc2)N(c2cc(Cl)cn(C)c2=O)C3=O)c(OC)n1 [Siremadlin] | 
> 0.3 | 0.1 (≈ 263 µM) | Cn1ncnc1[C@H]1c2n[nH]c(=O)c3cc(F)cc(c23)N[C@@H]1c1ccc(F)cc1 [Talazoparib] | 
> 0.3 | 0.004 (≈ 9.23 µM) | CC(C)Nc1cc(-c2c[nH]c(C(=O)N[C@H](CO)c3cccc(Cl)c3)c2)c(Cl)cn1 [Ulixertinib] | 
> 0.3 | 0.03 (≈ 69.9 µM) | Cn1ncc(Cl)c1-c1cc(C(=O)N[C@H](CN)Cc2ccc(F)c(F)c2)oc1Cl [Uprosertib] | 
> 0.3 | 0.0003 (≈ 0.612 µM) | CCCS(=O)(=O)Nc1ccc(F)c(C(=O)c2c[nH]c3ncc(-c4ccc(Cl)cc4)cc23)c1F [Vemurafenib] | 

Compound | solubility at 18 h (physchem) [mg/mL] | solubility (Solubility in water; Solubility in water) [mg/mL] | further results
Nc1ncccc1-c1nc2ccc(-c3ccccc3)nc2n1-c1ccc(C2(N)CCC2)cc1 [Miransertib] | > 0.3 |  | solubility (Solubility in water): 0.06 mg/mL (≈ 139 µM)
C=CC(=O)Nc1cc(Nc2nccc(-c3cn(C)c4ccccc34)n2)c(OC)cc1N(C)CCN(C)C [Osimertinib] | > 0.3 | 0.02 (≈ 40 µM) | 
